Measurements reported in PMC8891364, “Synthesis, and docking studies of novel heterocycles incorporating the indazolylthiazole moiety as antimicrobial and anticancer agents” (Scientific Reports, 2022).
Values after ≈ are worked out from the molar mass of the structure shown. Values joined by “and” are separate entries in the source; they are usually repeats but may differ in a detail not shown here. Equal values may be shown once.

Tests used:
Streptococcus mutans = test: Microbial-biofilm inhibition, tissue-culture plate technique (TCP); assay type: cell-based; details: 25 µg/mL, 24 h
Method: (§1) The activity of the newly synthesized compounds against microbial biofilm formation was estimated through the tissue-culture plate technique (TCP) as follows: the three above-mentioned pathogens, Streptococcus mutans, Pseudomonas aeruginosa, and Candida albicans were cultivated overnight in LB broth at 37 °C. Afterward, 200 µL of each diluted organism (10^6 CFU/mL) was inoculated separately (in triplicate) into 96-well tissue culture plates and incubated overnight at 37 °C. The free planktonic cells were removed, after the incubation period, by flipping the plate and washing each well three times with phosphate-buffered-saline (PBS), pH 7.1. To each well, 175 µL of fresh LB broth was added along with 25 µL of the tested compound (25 µg/mL final concentrations). The plates were reincubated at 37 °C for another 24 h, washed with PBS buffer pH 7.1 three times, and dried for 5 min at 50 °C. The formed biofilm was stained with crystal violet solution (0.1% w/v) for 5 min. The excess stain was decanted, and the stained biofilm was solubilized with 200 µL of glacial acetic acid (30% v/v), where the developed blue color was measured at 590 nm. The results are expressed as relative inhibition (%) compared to untreated groups (control). Controls were prepared by culturing the three pathogens on LB medium without any tested compounds.

Pseudomonas aeruginosa = test: as above; assay type: cell-based; details: 25 µg/mL, 24 h
Method: as §1

Candida albicans = test: as above; assay type: cell-based; details: 24 h, relative to untreated
Method: as §1

HepG-2 cells = test: MTT antitumor assay, hepatoma cells; assay type: cell-based, human; details: for IC50 HepG-2 / IC50: MTT, 48 h; for SI HepG-2: ratio of IC50 of normal cells (HFB-4) versus IC50 of tumor cells; for IC50: Homo sapiens, HepG2, 48 h
Method: (§2) The human melanocytes (HFB-4) cells, hepatoma (HepG-2) cells, and colon carcinoma (Caco-2) cells were obtained from American Type Culture Collection (ATCC, USA). The cytotoxicity of the newly synthesized compounds (at various concentrations) was determined using the 3-[4, 5-dimethylthiazol]-2, 5-diphenyltetrazolium bromide method (MTT assay)[59] against HFB-4 cells (normal human melanocytes), HepG-2 cells (hepatoma), and Caco-2 cells (colon carcinoma). Normal and cancer cells (1.0 × 10^4) were cultured in sterile 96-well microplates, and incubated for 24 h in DMEM (Lonza, USA) supplemented with 10% fetal bovine serum (Gibco, USA) for HFB-4 and Caco-2 cells or in an RPMI-1640 medium (Lonza, USA) supplemented with 10% FBS for HepG-2 cells. After 24 h of incubation, different doses of the tested synthesized compounds ([…]) were added in triplicate to all cells and incubated for another 48 h in 5% CO2. After washing the cells 3 times with fresh media, to remove dead cells and debris, a solution of MTT (Sigma -Aldrich, 0.5 mg/mL) was added to each well and further incubated for 2–5 h at 37 °C. Afterward, the MTT solution was decanted and 200 µL of DMSO was added. The optical density was measured at 570 nm using a microplate reader (BMG LabTech, Germany), where the cells’ relative viability (%) was estimated using the following equation: viability of cells (%) = [A1 − A0/AU − A0] × 100, where A1 is the absorbance of the test compound, A0 is the absorbance of the blank, and AU is the absorbance of untreated cells (control).
(§3) The antitumor activity of the synthesized compound was determined by calculating the IC50 value (half maximal inhibitory concentration) using Graph Pad Prism 6.0 software. The value of IC50 indicates the derivative concentration that causes 50% cell death, whereas the value of the selectivity index (SI), indicating the ratio of the IC50 value of normal cells versus the IC50 value of tumor cells, was also included as reported by[60],[61].

[1] = test system: Pseudomonas aeruginosa ATCC 27853; test: Antimicrobial microtiter-plate MIC assay; assay type: cell-based; details: 24 h, 37 °C; for MIC: Pseudomonas aeruginosa, ATCC27853
Method: (§4) The antimicrobial activity of the newly synthesized compounds (2–9) was evaluated against three model pathogenic microorganisms as follows: Streptococcus mutans ATCC 25175 (Gram-positive bacterium); Pseudomonas aeruginosa ATCC 27853 (Gram-negative bacterium); and Candida albicans ATCC 10231 (fungi-like unicellular organism). After cultivating the three tested pathogens overnight in LB broth, 100 µL of each tested organism (10^6 CFU/mL) was added separately to 100 µL of the serially diluted test compounds (5–80 µg) in a 96-well tissue culture plate and incubated at 37 °C for 24 h. Eventually, microbial growth was measured at 600 nm, and the results are presented in the form of MIC (Table 4). Two antibacterial reference drugs, ampicillin and ciprofloxacin, and one antifungal drug, clotrimazole, were incorporated into the experiments.

[2] = test system: Streptococcus mutans ATCC 25175; test: Antimicrobial microtiter-plate MIC assay; assay type: cell-based; details: for MIC Streptococcus mutant: 24 h, 37 °C; for MIC: Streptococcus mutans, ATCC25175, 24 h, read-out: MIC Streptococcus mutant
Method: as §4

[3] = test system: Candida albicans ATCC 10231; test: Antimicrobial microtiter-plate MIC assay; assay type: cell-based; details: for MIC Candida albicans / MIC: 24 h, 37 °C; for MIC: ATCC10231
Method: as §4

HFB-4 cells = test: MTT cytotoxicity assay, normal human melanocytes; assay type: cell-based; details: 48 h; for IC50: Melanocyte
Method: as §2, §3

Caco-2 cells [4] = test: MTT antitumor assay, colon carcinoma cells; assay type: cell-based; details: for IC50 Caco-2 / IC50: MTT, 48 h; for SI Caco-2: ratio of IC50 of normal cells (HFB-4) versus IC50 of tumor cells; for IC50: Homo sapiens, Caco-2, 48 h
Method: as §2, §3

β-catenin gene = test: qRT-PCR gene expression in HepG-2 and Caco-2 cells; assay type: cell-based, human; details: IC50 concentrations, 2 days
Method: (§5) The effects of the potent antitumor derivatives (4, 6, and 8) on the expression level of some tumor regulating genes were elucidated through quantitative real-time PCR (qRT- PCR) and compared to 5-fluorouracil (5-FU) as a reference antitumor drug. Five genes were assessed, including the tumor oncogene (Bcl-2), tumor suppressor gene (p53), matrix metalloproteinase gene (MMP-9), vascular endothelial growth factor gene (VEGF), and beta-catenin protein gene (β-catenin), in HepG-2 and Caco-2 cells, before and after treatment for 2 days with IC50 concentrations for compounds 4, 6, and 8. Following the extraction of total RNA from the tested cells, using the Gene JET RNA Purification Kit (Thermo Scientific, USA), cDNA synthesis was performed according to the cDNA Synthesis Kit protocol (Thermo Scientific, USA). qRT PCR was performed using the SYBR green kit and specific primers (Forward/Reverse) as follows: 5′-[…]-3'/5'-TCG GTCTCCTAAAAGCAGGC-3′ for the Bcl-2 gene, 5′-TAACAGTTCCTGCATG GG CG GC-3′/5′-[…]-3′ for p53, 5'-CTGCGTATTTCCATT CATC-3'/5'-CCTTGGGTCAGGTTTAGAG-3' for the MMP-9 gene, 5'-GGCTTTACT GCTGTACCTCC-3'/5'-CAAATGCTTTCTCCGCTCT-3' for the VEGF gene, and 5'-CATATGCGGCTGCTG TTCTA-3'/5'-CCGAAAG CCGTTTCTTGTAG-3' for the β-catenin gene. The upregulation and/or downregulation of the expression of the tested genes in Caco-2 and HepG-2 cells was determined by using the equation 2^−ΔΔCT[60].

Caco-2 cells [5] = test: Cell cycle arrest analysis by flow cytometry; assay type: cell-based, human; details: 48 h, IC50 concentrations, vs untreated control
Method: The cell cycle arrest of treated Caco-2 cells was evaluated through flow cytometry (Partec, Germany) in comparison with untreated cells and treated cells with 5-FU as a positive control[60],[62]. […] After washing the cells three times, the cells were fixed by adding 1 mL of 70% cold ethanol dropwise with a gentle vortex. Caco-2 cells were washed three times again with cold PBS and incubated in 1 mL of PBS containing 5 μg/mL RNase A (Sigma-Aldrich) for 1 h at 37 °C. Then 10 μL of PI (Sigma-Aldrich) was added to cells at a final concentration of 1 mg/mL in deionized water and left at 4 °C until analysis in the dark. The cell cycle of Caco-2 cells before and after treatment was analyzed by FACS using Cell Quist and Mod Fit software by reading at 488 nm.

VEGF gene = test: qRT-PCR gene expression in HepG-2 and Caco-2 cells; assay type: cell-based, human; details: IC50 concentrations, 2 days, compared to 5-FU and untreated cells
Method: as §5

MMP-9 gene = test: qRT-PCR gene expression in HepG-2 and Caco-2 cells; assay type: cell-based, human; details: IC50 concentrations, 2 days, compared to 5-FU and untreated cells
Method: as §5

Bcl-2 gene = test: qRT-PCR gene expression in HepG-2 and Caco-2 cells; assay type: cell-based, human; details: for gene expression of Bcl-2: HepG-2 and Caco-2 cells, IC50 concentrations, 2 days, compared to 5-FU and untreated cells; for downregulation of Bcl-2 expression, fold: compared to control cells
Method: as §5

Structure (SMILES)	antibiofilm formation activity Streptococcus mutans (in words) (Streptococcus mutans)	IC50 HepG-2 (HepG-2 cells)	SI HepG-2 (HepG-2 cells)	IC50 Caco-2 (Caco-2 cells [4])	SI Caco-2 (Caco-2 cells [4])	expression of the β-catenin gene (β-catenin gene)	apoptotic phase (sub-G1) population (Caco-2 cells [5])	synthesis (S) phase population (Caco-2 cells [5])	IC50 (HepG-2 cells)	MIC [1]	MIC [2]	MIC ([3]; Candida albicans)	IC50 (HFB-4 cells)	IC50 (Caco-2 cells [4])	gene expression of VEGF (VEGF gene)	gene expression of MMP-9 (MMP-9 gene)	gene expression of Bcl-2 (Bcl-2 gene)	downregulation of Bcl-2 expression, fold (Bcl-2 gene)	other results
N#CC1=C(N)N(c2ccc(S(N)(=O)=O)cc2)c2nc(N3NC4=C(CCCC4)C3c3ccccc3)sc2C1c1ccccc1 (centres unmarked) [Compound 3, 4-(5-amino-6-cyano-7-phenyl-2-(3-phenyl-1,3,4,5,6,7-hexahydro-2H-indazol-2-yl)thiazolo[4,5-b]pyridin-4(7H)-yl) benzenesulfonamide]	had antibiofilm formation activities	7.72 ± 0.38 µg/mL (≈ 12.7 µM)	7.20 ± 0.20	7.74 ± 0.81 µg/mL (≈ 12.7 µM)	7.18 ± 0.20	–	–	–	–	–	–	–	–	–	–	–	–	–	biofilm inhibition Streptococcus mutans (Streptococcus mutans; relative to untreated): around 64%; biofilm inhibition activity Pseudomonas aeruginosa (in words) (Pseudomonas aeruginosa): high biofilm inhibition activity; biofilm inhibition Candida albicans (Candida albicans; 25 µg/mL): 69%; MIC Pseudomonas aeruginosa [1]: 18.29 ± 2.114 µg/mL (≈ 30.1 µM); MIC Pseudomonas aeruginosa ([1]; listed as derivative 3): 18.29 µg/mL (≈ 30.1 µM); MIC Streptococcus mutant [2]: 11.12 ± 0.4232 µg/mL (≈ 18.3 µM); MIC Streptococcus mutant ([2]; listed as derivative 3): 11.2 µg/mL (≈ 18.4 µM); MIC Candida albicans [3]: 40.74 ± 0.5511 µg/mL (≈ 67 µM); MIC Candida albicans ([3]; listed as compound 3): 40.74 µg/mL (≈ 67 µM); antifungal activity as share of clotrimazole activity ([3]; Candida albicans): 36%; IC50 HFB-4 (HFB-4 cells): 55.59 ± 1.58 µg/mL (≈ 91.5 µM)
O=c1[nH]cc(F)c(=O)[nH]1 [Compound 5-FU, 5-fluorouracil, reference compound]	–	–	–	–	–	stimulated its expression	–	–	–	–	–	–	–	–	–	–	–	–	–
NNC(=O)c1c(N)sc2sc(N3NC4=C(CCCC4)C3c3ccccc3)nc12 (centres unmarked) [Compound 6, 5-amino-2-(3-phenyl-1,3,4,5,6,7-hexahydro-2H-indazol-2-yl)thieno[3,2-d] thiazole-6-carbohydrazide]	–	–	21.8 and 21.75 ± 0.03	–	25.6 and 25.59 ± 0.03	significantly suppressed	becomes detectable after treatment	decreased	6.12 ± 0.19 µg/mL (≈ 14.8 µM)	58.5 ± 2.27 µg/mL (≈ 142 µM)	39.58 ± 0.348 µg/mL (≈ 95.9 µM)	57.3 ± 1.32 µg/mL (≈ 139 µM)	133 ± 4.18 µg/mL (≈ 323 µM)	5.21 ± 0.22 µg/mL (≈ 12.6 µM)	significantly downregulated	significantly downregulated	significantly downregulated	more than threefold	inhibition at 25 µg/mL (Candida albicans; Candida albicans): 61%
N#CCc1nn(N)c2nc(N3NC4=C(CCCC4)C3c3ccccc3)sc12 (centres unmarked) [Compound 8, 2-(1-amino-5-(3-phenyl-1,3,4,5,6,7-hexahydro-2H-indazol-2-yl)-1H-pyrazolo [3,4-d]thiazol-3-yl)acetonitrile]	had antibiofilm formation activities	5.86 ± 0.34 µg/mL (≈ 15.5 µM)	26.23 ± 0.30	5.89 ± 0.38 µg/mL (≈ 15.6 µM)	26.08 ± 0.30	significantly suppressed	becomes detectable after treatment	decreased	~5.9 µg/mL (≈ 15.6 µM)	53 ± 2.18 µg/mL (≈ 141 µM)	15.8 ± 0.205 µg/mL (≈ 41.8 µM)	56.2 ± 1.24 µg/mL (≈ 149 µM)	154 ± 1.76 µg/mL (≈ 407 µM)	~5.9 µg/mL (≈ 15.6 µM)	significantly downregulated	significantly downregulated	significantly downregulated	more than threefold	SI HepG-2 (HepG-2 cells; listed as Derivative 8): about 26; SI Caco-2 (Caco-2 cells [4]; listed as Derivative 8): about 26
